Like-named read-outs stand apart in the source and are kept apart here. Marks after values point to notes of the source that are not given here.
What was measured:
[1] = tested on: Enterococcus faecium
Protocol: (§1) In the following experiments, bacterial cells were cultured in 96-well microtiter plates in cation-adjusted Mueller-Hinton Broth (MHB) for 18 h at 37° C. The main strains used in this study were E. coli (K-12 BW25113) (placed in stationary incubator) and S. aureus (Strain Newman) (incubated at 250 r.p.m). Knockout strains (ΔtolcC and ΔychM) were used from the Keio knockout collection (Baba, T. et al. Construction of Escherichia coli K-12 in-frame, single-gene knockout mutants: the Keio collection. Mol Syst Biol 2, 2006 0008, doi:10.1038/msb4100050 (2006)). For minimum concentration for inhibition (MIC) determination and checkerboard analyses, Clinical & Laboratory Standards Institute (CLSI) protocol was used. […] DiSC3 loading of S. aureus cells was performed as previously described (Farha, M. A., Verschoor, C. P., Bowdish, D. & Brown, E. D. Collapsing the proton motive force to identify synergistic combinations against Staphylococcus aureus. Chemistry & biology 20, 1168-1178, doi:10.1016/j.chembiol.2013.07.006 (2013)). CCCP concentration of 20 μM was used. pH adjustments were made by addition of HCl or NaOH. […]

[2] = tested on: Klebsiella pneumoniae; test: MIC determination (CLSI protocol); assay type: cell-based
Protocol: as §1, with “NaOH. INT assay and ATP bioluminescence assays were performed as previously described (Farha, M. A., Verschoor, C. P., Bowdish, D. & Brown, E. D. Collapsing the proton motive force to identify synergistic combinations against Staphylococcus aureus. Chemistry & biology 20, 1168-1178, doi:10.1016/j.chembiol.2013.07.006 (2013)). For chemical-genomic studies, the Keio library was grown overnight in cation-adjusted MHB broth, in 384-well plates. From these, treatment plates (25 mM sodium bicarbonate, or a sterile water control) were inoculated and grown for 15 hours at 37° C., in a stationary incubator. Data was normalized according to Mangat et al (Mangat, C. S., Bharat, A., Gehrke, S. S. & Brown, E. D. Rank ordering plate data facilitates data visualization and normalization in high-throughput screening. J Biomol Screen 19, 1314-1320, doi:10.1177/1087057114534298 (2014)), with gene products and GO terms mined from EcoCyc.” for “NaOH.”

[3] = tested on: Pseudomonas aeruginosa; test: MIC determination (CLSI protocol); assay type: cell-based
Protocol: as §1, with “NaOH. INT assay and ATP bioluminescence assays were performed as previously described (Farha, M. A., Verschoor, C. P., Bowdish, D. & Brown, E. D. Collapsing the proton motive force to identify synergistic combinations against Staphylococcus aureus. Chemistry & biology 20, 1168-1178, doi:10.1016/j.chembiol.2013.07.006 (2013)). For chemical-genomic studies, the Keio library was grown overnight in cation-adjusted MHB broth, in 384-well plates. From these, treatment plates (25 mM sodium bicarbonate, or a sterile water control) were inoculated and grown for 15 hours at 37° C., in a stationary incubator. Data was normalized according to Mangat et al (Mangat, C. S., Bharat, A., Gehrke, S. S. & Brown, E. D. Rank ordering plate data facilitates data visualization and normalization in high-throughput screening. J Biomol Screen 19, 1314-1320, doi:10.1177/1087057114534298 (2014)), with gene products and GO terms mined from EcoCyc.” for “NaOH.”

[4] = tested on: Acinetobacter baumannii; test: MIC determination (CLSI protocol); assay type: cell-based
Protocol: as §1, with “NaOH. INT assay and ATP bioluminescence assays were performed as previously described (Farha, M. A., Verschoor, C. P., Bowdish, D. & Brown, E. D. Collapsing the proton motive force to identify synergistic combinations against Staphylococcus aureus. Chemistry & biology 20, 1168-1178, doi:10.1016/j.chembiol.2013.07.006 (2013)). For chemical-genomic studies, the Keio library was grown overnight in cation-adjusted MHB broth, in 384-well plates. From these, treatment plates (25 mM sodium bicarbonate, or a sterile water control) were inoculated and grown for 15 hours at 37° C., in a stationary incubator. Data was normalized according to Mangat et al (Mangat, C. S., Bharat, A., Gehrke, S. S. & Brown, E. D. Rank ordering plate data facilitates data visualization and normalization in high-throughput screening. J Biomol Screen 19, 1314-1320, doi:10.1177/1087057114534298 (2014)), with gene products and GO terms mined from EcoCyc.” for “NaOH.”

[5] = tested on: S. aureus (Strain Newman); test: MIC determination (CLSI protocol) in MHB; assay type: cell-based, Staphylococcus aureus
Protocol: (§2) In the following experiments, bacterial cells were cultured in 96-well microtiter plates in cation-adjusted Mueller-Hinton Broth (MHB) for 18 h at 37° C. The main strains used in this study were E. coli (K-12 BW25113) (placed in stationary incubator) and S. aureus (Strain Newman) (incubated at 250 r.p.m). Knockout strains (ΔtolcC and ΔychM) were used from the Keio knockout collection (Baba, T. et al. Construction of Escherichia coli K-12 in-frame, single-gene knockout mutants: the Keio collection. Mol Syst Biol 2, 2006 0008, doi:10.1038/msb4100050 (2006)). For minimum concentration for inhibition (MIC) determination and checkerboard analyses, Clinical & Laboratory Standards Institute (CLSI) protocol was used. […] DiSC3 loading of S. aureus cells was performed as previously described (Farha, M. A., Verschoor, C. P., Bowdish, D. & Brown, E. D. Collapsing the proton motive force to identify synergistic combinations against Staphylococcus aureus. Chemistry & biology 20, 1168-1178, doi:10.1016/j.chembiol.2013.07.006 (2013)). CCCP concentration of 20 μM was used. pH adjustments were made by addition of HCl or NaOH. INT assay and ATP bioluminescence assays were performed as previously described (Farha, M. A., Verschoor, C. P., Bowdish, D. & Brown, E. D. Collapsing the proton motive force to identify synergistic combinations against Staphylococcus aureus. Chemistry & biology 20, 1168-1178, doi:10.1016/j.chembiol.2013.07.006 (2013)). For chemical-genomic studies, the Keio library was grown overnight in cation-adjusted MHB broth, in 384-well plates. From these, treatment plates (25 mM sodium bicarbonate, or a sterile water control) were inoculated and grown for 15 hours at 37° C., in a stationary incubator. Data was normalized according to Mangat et al (Mangat, C. S., Bharat, A., Gehrke, S. S. & Brown, E. D. Rank ordering plate data facilitates data visualization and normalization in high-throughput screening. J Biomol Screen 19, 1314-1320, doi:10.1177/1087057114534298 (2014)), with gene products and GO terms mined from EcoCyc. The GFP promoter library (Keseler, I. M. et al. EcoCyc: fusing model organism databases with systems biology. Nucleic Acids Res 41, D605-612, doi:10.1093/nar/gks1027 (2013)) was grown for 18 hours at ambient temperature with the same inoculation strategy as with the Keio collection. The analysis pipeline of Zaslaver et al (Zaslaver, A. et al. A comprehensive library of fluorescent transcriptional reporters for Escherichia coli. Nat Methods 3, 623-628, doi:10.1038/nmeth895 (2006)) was used to generate maps of promoter activity, from which lists of promoters with increased or decreased activity were compiled.

[6] = tested on: E. coli (K-12 BW25113); assay type: cell-based, Escherichia coli; set-up: MIC, E. coli, MHB− / MIC, E. coli, MHB+: unit not given here; conditions: for MIC, E. coli, MHB−: MHB without sodium bicarbonate
Protocol: as §2

[7] = tested on: Klebsiella pneumonia (ATCC 43816); conditions: mice
Protocol: Mice were infected with Klebsiella pneumonia (ATCC 43816; inoculum=2.5×10^6 CFU/mL). Following infection, the infected mice were treated with 4 mL nebulized doses of 225 mM sodium bicarbonate using a chamber nebulizer delivery system (Kent Scientific) at 2, 12 and 24 hours post-infection. The mice were sacrificed after 36 hours, and bacterial counts enumerated.

[8] = for pH of MHB media: prior to pH-adjusting to 7.4
Excerpt: Test media were pH-adjusted upon addition of sodium bicarbonate for all studies reported herein.

[9] = tested on: E. coli; test: Microdilution checkerboard analyses; assay type: cell-based, Escherichia coli
Protocol: as §2, with “The GFP promoter library (Keseler, I. M. et al. EcoCyc: fusing model organism databases with systems biology. Nucleic Acids Res 41, D605-612, doi:10.1093/nar/gks1027 (2013)) was grown for 18 hours at ambient temperature with the same inoculation strategy as with the Keio collection. The analysis pipeline of Zaslaver et al (Zaslaver, A. et al. A comprehensive library of fluorescent transcriptional reporters for Escherichia coli. Nat Methods 3, 623-628, doi:10.1038/nmeth895 (2006)) was used to generate maps of promoter activity, from which lists of promoters with increased or decreased activity were compiled.” left out

[10] = tested on: methicillin-resistance Staphylococcus aureus (MRSA) USA-300; test: Superficial skin infection model, tape-stripped mice; assay type: in vivo; conditions: topical 0.5% aqueous solution with or without bicarbonate (50 mM)
Protocol: In this model, an infection is established by disrupting the skin barrier through partial removal of the epidermal layer by stripping with adhesive tape and with subsequent application of the pathogen. Tape-stripped mice infected with 4×10^6 CFU/mL A. baumannii (FIG. 4A) or 4×10^6 CFU/mL methicillin-resistance Staphylococcus aureus (MRSA) USA-300 (FIG. 4B). […] This treatment regime was also conducted for the Vehicle (1.9% Boric Acid, pH 7) as a control (n=4). Tissue samples were collected at 25 hr post-infection (FIG. 4A) and 28 hr post-infection (FIG. 4B). […] (FIG. 5).

[11] = tested on: Gram-negative organisms
[12] = tested on: Gram-positive organisms
[13] = tested on: A. baumannii; test: Murine model of systemic A. baumannii infection; assay type: in vivo; conditions: mice
Protocol: Mice were treated two-hours post-infection to allow complete organ occupancy by the injected cells.

[14] = fold enhancement of MIC with 25 mM sodium bicarbonate, negative = suppression

O=C([O-])O.[Na+] [Sodium bicarbonate]
MIC of sodium bicarbonate [1]: 50 to 100 mM
MIC of sodium bicarbonate [2]: 100 mM
MIC of sodium bicarbonate [3]: >100 mM
MIC of sodium bicarbonate [4]: 50 mM
MIC of sodium bicarbonate ([5]; Staphylococcus aureus): 50 to 100 mM
MIC of sodium bicarbonate ([6]; Escherichia coli): 100 mM
tolerability of nebulized bicarbonate ([7]; 225 mM nebulized): well tolerated
bacterial counts ([7]; 4 mL nebulized 225 mM sodium bicarbonate at 2, 12, 24 h, counts after 36 hours, inoculum 2.5×10^6 CFU/mL): 4×10^4-4×10^5 CFU/mL
pH of MHB media ([8]; 3.12 mM sodium bicarbonate): 7.42
pH of MHB media ([8]; 25 mM sodium bicarbonate): 7.53
pH of MHB media ([8]; 50 mM sodium bicarbonate): 7.61
pH of MHB media ([8]; 100 mM sodium bicarbonate): 7.71
effect on activity of pentamidine (checkerboard) ([9]; E. coli, dose-dependent): greatly potentiated the activity of pentamidine

CN[C@H](CC(C)C)C(=O)N[C@H]1C(=O)N[C@@H](CC(N)=O)C(=O)N[C@H]2C(=O)N[C@H]3C(=O)N[C@H](C(=O)N[C@H](C(=O)O)c4cc(O)cc(O)c4-c4cc3ccc4O)[C@H](O)c3ccc(c(Cl)c3)Oc3cc2cc(c3O[C@@H]2O[C@H](CO)[C@@H](O)[C@H](O)[C@H]2O[C@H]2C[C@](C)(N)[C@H](O)[C@H](C)O2)Oc2ccc(cc2Cl)[C@H]1O [Vancomycin]
MIC, S. aureus, MHB− ([5]; MHB without sodium bicarbonate): 1 µg/mL
Fold, S. aureus [5, 14]: −4 fold
Fold, E. coli [6, 14]: 1 fold

N=C(N)c1ccc(OCCCCCOc2ccc(C(=N)N)cc2)cc1 [pentamidine]
effect of addition of bicarbonate on efficacy of pentamidine in clearing MRSA infection [10]: increased the antibacterial efficacy
MIC of pentamidine, tissue culture media formulated to mimic the natural environment [6]: 1.5 µg/mL
potentiation of antibacterial activity in the presence of bicarbonate, average [11]: 40 fold
potentiation of antibacterial activity in the presence of bicarbonate, average [12]: 50 fold
A. baumannii organ load (spleen), combination ([13]; combination of pentamidine 10 mg/kg and novobiocin IP): total clearance
decrease of A. baumannii organ load (spleen) ([13]; pentamidine alone IP): seven

O=P([O-])([O-])[O-].[Na+].[Na+].[Na+] [trisodium phosphate]
increase of the pH of the media ([8]; trisodium phosphate added): 3 units
effect on activity of dirithromycin (checkerboard) ([9]; pH not adjusted (pH ~10)): potentiated the activity of dirithromycin
effect on activity of dirithromycin (checkerboard) ([9]; pH of the medium adjusted to 7.2): loss of synergy

Gentamicin
Fold, S. aureus [5]: 2 fold
Fold, E. coli [6]: 8 fold
MIC, E. coli, MHB+ [6]: 0.25
effect of CCCP pre-treatment on potentiation by sodium bicarbonate [6]: abolishes the potentiation
MIC, E. coli, MHB− [6]: 2

Lysozyme
MIC in MHB ([5]; S. aureus (strain Newman), MHB): >256 ** μg/mL
MIC in MHB + 25 mM bicarbonate ([5]; S. aureus (strain Newman), MHB + 25 mM sodium bicarbonate): >256 ** μg/mL
effect of physiological sodium bicarbonate on inhibitory activity ([6]; E. coli, 25 mM sodium bicarbonate): enhanced the inhibitory activity

Neomycin
Fold, S. aureus [5]: 4 fold
Fold, E. coli [6]: 4 fold
MIC, E. coli, MHB+ [6]: 0.25
MIC, E. coli, MHB− [6]: 1

Polymyxin B
Fold, S. aureus [5]: 8 fold
Fold, E. coli [6]: −2 fold
MIC, E. coli, MHB+ [6]: 0.5
MIC, E. coli, MHB− [6]: 0.25

Source: patent US12678454B2, “Bicarbonate as a potentiator for antimicrobial agents” (priority 2017, dated 2026)
